Source: article PMC8619068, “Transformation of Tetracycline by Manganese Peroxidase from Phanerochaete chrysosporium” (Molecules, 2021)

Tested on: T1, manganese peroxidase (MnP)
T1 construct: gene MNP1; native secreted enzyme purified from culture fluid (ultrafiltration, DEAE, Sephadex G-75); single band on SDS-PAGE
Assay: HPLC-UV ([…] nm) of residual tetracycline; non-linear Michaelis-Menten fit
Format: biochemical, Phanerodontia chrysosporium
Conditions: MnSO4 0.1 mmol/L, H2O2 0.2 mmol/L, MnP 40 U/L, tartrate buffer 0.05 mol/L pH 4.5, 37 °C (general removal assay); oxidation mediated by Mn3+

CN(C)[C@@H]1C(=O)C(C(N)=O)=C(O)[C@@]2(O)C(=O)C3=C(O)c4c(O)cccc4[C@@](C)(O)[C@H]3C[C@@H]12 [TC, tetracycline]
Km: 238.23 mg/L
